Several values for one entry are separate records, joined by “and”; a condition that tells them apart may be missing. Equal values may be shown once.
Experiments:
[1] = tested on: LNCAP; test: Cytotoxic activity, sulforhodamine B assay, LNCAP; assay type: cell-based, human; settings: 72 h, LNCAP prostate cancer cells
Procedure: (§1) Media, serum and antibiotics for cell culture were from Lonza (Basel, Switzerland). MCF7 (ER+, PR+, HER2−), SKBR3 (ER−, […], HER2+) and MDA-MB231 (ER−, PR−, HER2−) human breast cancer cells; MCF10A non-cancer breast epithelial cells; LNCAP (androgen sensitive), DU145 and PC3 (androgen independent) human prostate cancer cells; and PNT1 non-cancer prostate epithelial cells were available in our laboratory. MCF7, SKBR3 and MDA-MB231 cells were cultured in DMEM, supplemented with 10% FBS, 2 mM glutamine, 100 units/mL penicillin and 100 units/mL streptomycin. MCF10A cells were cultured in MEBM and supplemented with 0.4% BPE, 0.1% hEGF, 0.1%, Insulin, 0.1% Hydrocortisone and 0.1% GA-1000. LNCAP and DU145 cells were cultured in RPMI and supplemented with 10% FBS, 2 mM glutamine, 100 units/mL penicillin and 100 units/mL streptomycin. PC3 and PNT1 cells were cultured in DMEM-F12 (1:1), supplemented with 10% FBS, 2 mM glutamine, 100 units/mL penicillin and 100 units/mL streptomycin. Cultures were maintained in a humidified atmosphere of 95% air and 5% CO2 at 37 °C. Treatment with compounds were carried out in culture conditions. For cell survival assay, cells were fixed with 50% trichloroacetic acid for at least 2 h at 4 °C, washed with distilled and de-ionized water, air-dried and stained for 30 min with 0.4% sulforhodamine B in 1% acetic acid. Unbound dye was removed, and 10 mM tris-HCl solution (pH 7.5) was added to dissolve the protein-bound dye. Cell survival was assessed by optical density determination at 510 nm using a microplate reader.
(§2) Figure 1 Effect of novel thiazolinylphenyl-piperazines (2a–c) on PCa cell viability. LNCAP, DU145 and PC3 cells were treated with rising concentrations (5 μM, 10 μM, 25 μM, 50 μM, 100 μM) of 2a–c. After 72 h, cell viability was assessed by sulforhodamine B assay. The results were reported as percentage of viable cells compared to positive control (untreated cells that were considered to represent the maximum viability of 100%). Data represent the mean ± SD of at least three independent triplicate experiments. * denotes statistically significant values compared with positive control (* adjp < 0.05, ** adjp < 0.01).

[2] = tested on: DU-145; test: Cytotoxic activity, sulforhodamine B assay, DU-145; assay type: cell-based; settings: Homo sapiens, DU-145 prostate cancer cells, 72 h
Procedure: as §1
as §2, with “Data represent the mean ± SD of at least three independent triplicate experiments. * denotes statistically significant values compared with positive control (* adjp < 0.05, ** adjp < 0.01).” left out

[3] = molecular target: T1, 5-HT1A receptor (Rattus norvegicus, UniProt P19327); test: Competitive 5-HT1A binding assay, [3H]8-OH-DPAT, hippocampal membranes; design: species or system Sprague Dawley rats; settings: 5-HT1A receptor binding affinity; 1 nM [3H]8-OH-DPAT, hippocampal membrane; Cheng–Prusoff; read-out: Ki (µM, 95% CI)
T1 construct: supplemented with 0.1% ascorbate, 5 mM MgCl2 and 80 µg of hippocampal membrane suspension; from tissue; host or cells: rat hippocampus membranes (Sprague Dawley)
T1 sequence (P19327 1-422): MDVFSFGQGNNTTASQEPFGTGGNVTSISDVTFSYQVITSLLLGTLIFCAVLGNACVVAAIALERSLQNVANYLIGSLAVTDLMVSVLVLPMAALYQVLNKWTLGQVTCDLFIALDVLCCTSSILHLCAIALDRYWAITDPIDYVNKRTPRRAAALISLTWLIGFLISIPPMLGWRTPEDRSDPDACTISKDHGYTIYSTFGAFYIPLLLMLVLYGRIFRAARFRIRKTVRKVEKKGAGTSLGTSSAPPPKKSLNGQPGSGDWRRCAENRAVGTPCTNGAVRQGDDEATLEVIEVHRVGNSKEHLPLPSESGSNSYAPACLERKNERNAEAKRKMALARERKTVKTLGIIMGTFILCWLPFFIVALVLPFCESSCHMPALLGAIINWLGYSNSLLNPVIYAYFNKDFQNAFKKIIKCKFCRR
Procedure: Brains were rapidly removed and placed on ice. Hippocampi (for 5-HT1A assays) and frontal cortices (for 5-HT2A assays) were dissected on a Petri dish. […] The homogenate was centrifuged at 48,000× g at 4 °C for 15 min. […] The centrifugation and suspension steps were repeated twice.
Non-specific binding was determined with 10 μM serotonin. The final DMSO concentration in the assay was 5%. […] Each well was washed with 2 mL of 50 mM Tris-HCl (pH 7.4) buffer to separate bound ligands from free ones. Plates were left to dry overnight. […] Binding curves were fitted with one site non-linear regression.

[4] = tested on: MDA-MB231; test: Cytotoxic activity, sulforhodamine B assay, MDA-MB231; assay type: cell-based; settings: Homo sapiens, MDA-MB-231, MDA-MB231 breast cancer cells, 72 h
Procedure: as §1
as §2, with “Figure 2” for “Figure 1”, “on BCa” for “on PCa”, “viability. MCF7, SKBR3” for “viability. LNCAP, DU145”, “and MDA” for “and PC3”, “< 0.01, *** adjp < 0.001).” for “< 0.01).”
as §2, with “Figure 3” for “Figure 1”, “thiazolinylphenyl-piperazines (3a–c)” for “thiazolinylphenyl-piperazines (2a–c)”, “on PC3 and MDA” for “on PCa”, “viability. Cells” for “viability. LNCAP, DU145 and PC3 cells”, “of 3a-c.” for “of 2a–c.”, “< 0.01, *** adjp < 0.001, **** adjp < 0.0001).” for “< 0.01).”

[5] = tested on: MCF-7; test: Cytotoxic activity, sulforhodamine B assay, MCF-7; assay type: cell-based; settings: Homo sapiens, MCF7, MCF-7 breast cancer cells, 72 h
Procedure: as §1
(§3) Figure 2 Effect of novel thiazolinylphenyl-piperazines (2a–c) on BCa cell viability. MCF7, SKBR3 and MDA cells were treated with rising concentrations (5 μM, 10 μM, 25 μM, 50 μM, 100 μM) of 2a–c. After 72 h, cell viability was assessed by sulforhodamine B assay. The results were reported as percentage of viable cells compared to positive control (untreated cells that were considered to represent the maximum viability of 100%). […]

[6] = tested on: SKBR-3; test: Cytotoxic activity, sulforhodamine B assay, SKBR-3; assay type: cell-based; settings: Homo sapiens, SK-BR-3, SKBR-3 breast cancer cells, 72 h
Procedure: as §1, §3

[7] = tested on: PC-3; test: Cytotoxic activity, sulforhodamine B assay, PC-3; assay type: cell-based; settings: Homo sapiens, PC-3 prostate cancer cells, 72 h
Procedure: as §1
Figure 1 Effect of novel thiazolinylphenyl-piperazines (2a–c) on PCa cell viability. LNCAP, DU145 and PC3 cells were treated with rising concentrations (5 μM, 10 μM, 25 μM, 50 μM, 100 μM) of 2a–c. After 72 h, cell viability was assessed by sulforhodamine B assay. […]
Figure 3 Effect of novel thiazolinylphenyl-piperazines (3a–c) on PC3 and MDA cell viability. […] After 72 h, cell viability was assessed by sulforhodamine B assay. […]

Row | Structure (SMILES) | IC50 ([1]; Homo sapiens, LNCaP) [µM] | IC50 [2] [µM] | Ki [3] | IC50 [4] [µM] | IC50 [5] [µM] | IC50 [6] [µM] | IC50 [1] [µM] | melting point [°C] | IC50 [7] [µM]
1 | c1ccc(N2CCNCC2)c(C2=NCCS2)c1 [2a, 2-(2-(Piperazin-1-yl)phenyl)-4,5-dihydrothiazole] | 67.2 ± 13.1 | 66.6 ± 7.3 | 2.29 µM and 2.3 µM | 31.4 ± 5.1 | 14.7 ± 1.9 | 28.2 ± 4.1 |  |  | 
2 | c1cc(C2=NCCS2)cc(N2CCNCC2)c1 [2b, 2-(3-(Piperazin-1-yl)phenyl)-4,5-dihydrothiazole] | 48.5 ± 7.3 | 66.6 ± 9.4 | 0.412 µM | 40 ± 9.8 | 15.9 ± 1.8 | 27.6 ± 5.6 |  |  | 
3 | c1cc(N2CCNCC2)ccc1C1=NCCS1 [2c, 2-(4-(Piperazin-1-yl)phenyl)-4,5-dihydrothiazole] | 32 | 47.7 ± 11.7 | 49.5 µM | 36.3 ± 7.7 | 19.5 ± 2.3 | 27.7 ± 4.8 | 31.9 ± 9.2 |  | 
4 | CC(=O)N1CCN(c2ccccc2C2=NCCS2)CC1 [3a, 1-(4-(2-(4,5-Dihydrothiazol-2-yl)phenyl)piperazin-1-yl)ethan-1-one] |  |  |  | 23.3 ± 3.4 |  |  |  | 90 to 92 | 73.3 ± 10.3
5 | CC(=O)N1CCN(c2cccc(C3=NCCS3)c2)CC1 [3b, 1-(4-(3-(4,5-Dihydrothiazol-2-yl)phenyl)piperazin-1-yl)ethan-1-one] |  |  |  | 34.6 ± 5.4 |  |  |  |  | 65 ± 7.4
6 | CC(=O)N1CCN(c2ccc(C3=NCCS3)cc2)CC1 [3c, 1-(4-(4-(4,5-Dihydrothiazol-2-yl)phenyl)piperazin-1-yl)ethan-1-one] |  |  |  | 47.1 ± 6.7 |  |  |  |  | 32.1 ± 10.2
